Measured values: patent US20160333073A1, “DRUG DELIVERY SYSTEM” (UCL BUSINESS PLC, priority 2014, published 2016)
Read-outs that look alike come from different tables or passages of the source. One block for each compound: values may come before it. Square brackets hold non-standard residues; d marks the D form. Peptide text beside a SMILES is read from it. * marks the point of attachment. FITC = O=C1OC2(c3ccc(O)cc3Oc3cc(O)ccc32)c2ccc(NC(=S)*)cc21

Legend:
[1] = Degradation by proteases in rabbit vitreous (mass spectrometry / UPLC-MS)
Description: FIG. 10. […] UPLC-MS=ultra performance liquid chromatography-mass spectrometry.
FIG. 11. The effect of the protease inhibitors aprotinin (8 μM), bestatin (500 μM), E-64 (150 μM), and leupeptin (200 μM) on HABP35-F detection by UPLC-MS, after 6 hours incubation in rabbit vitreous. […] The experiment was performed three times (n=3). UPLC-MS=ultra performance liquid chromatography-mass spectrometry.
In order to assess degradation of HABP35-F by proteases present in rabbit vitreous, HABP35-F was incubated in rabbit vitreous for a period of 12 hours. Samples of HABP35-F in rabbit vitreous were taken at 0 and 12 hours and the mass spectrum traces for HABP35-F were compared.
In order to confirm that fragmentation occurred at the N-terminus (as opposed to the C-terminus), HABP35-B was incubated for 12 hours with rabbit vitreous.
In order to further confirm that HABP35-F was being enzymatically digested at the N-terminus, the proportion of HABP35-F that could be detected following incubation was assessed, with or without bestatin. Bestatin is an aminopeptidase inhibitor. Aminopeptidases catalyse the cleavage of amino acids from the N-terminus of peptides/proteins.
In order to optimise detection, further other protease inhibitors were added (aprotinin, bestatin, E-64, leupeptin).

[2] = parameters: species or system Sprague Dawley rats; conditions: rat, in vivo
Description: FIG. 5. The retention of HABP35-F and RP2-F in rat vitreous after 48 hours. 2.5 μl of HABP35-F or RP2-F (250 nmole/ml) was injected into the vitreous of adult male Sprague Dawley rats. After 48 hours the eyes were removed. The cornea and lens was removed and the eye cup opened out into a Maltese cross. The vitreous and retina was photographed using an epifluorescent microscope (using equal exposure settings). A) Fluorescence of HABP35-F in the vitreous 48 hours following injection. B) Fluorescence of RP-F in the vitreous 48 hours following injection. C) Collage photograph showing fluorescence of HABP35-F in the vitreous 48 hours following injection.
FIG. 6. The in vivo diffusion study of HABP35-FP (higher line) and RP2-F (lower line) in rat vitreous over time. […] At different time points (0, 8, 24, 72, 168 hours) rats were sacrificed and the concentration of peptide in the vitreous was measured by fluorescence. […]
HABP-35-F was modified to protect the N-terminus from enzymatic degradation, through conversion of the terminal leucine to its D-configuration and by acetylation. […] The vitreous was extracted and peptide concentration measured by assessing fluorescence of the extracted vitreous. Three eyes were assessed, for each peptide, at each time point. In addition, the fluorescence of the vitreous was directly assessed on eye-cup flat mounts using an epifluorescent microscope.

[3] = format: binding
Description: (§1) FIG. 1. Harvard Fast Micro-Equilibrium Dialyzer. Each dialyzer is made of polytetrafluoroethylene (PTFE) and contains a 250 μl chamber on either side of a 100 kDa molecular weight cut off (MWCO) cellulose acetate membrane. The chambers were incubated at room temperature for up to 8 hours, and the diffusion from one chamber to the other was assessed. The side in which the peptide is placed is termed the donating chamber. The other side, towards which the peptide diffuses, is termed the receiving chamber.
FIG. 4. The diffusion of HABP35-F (left-hand column in each case) and RP2-F (right-hand column in each case) in hyaluronic acid, using a Harvard Fast Micro-Equilibrium Dialyzer. […] Concentration of HABP35-F or RP2-F, in the donating and receiving chambers, was measured at the 8-hour time point (n=3). The concentration gradient was then determined (difference between the concentration of the donating and receiving chambers). […]
In order to assess whether the retention in the donating chamber was due to an interaction with hyaluronic acid (HA), a solution of 2.5 mg/ml HA (in HEPES buffered saline) was added to each chamber, instead of rabbit vitreous. 20 nmole/ml of HABP35-F or RP2-F was added to the donating chamber and diffusion was measured over 8 hours. […] As a control, diffusion in HEPES buffered saline (HBS) alone was also assessed. […]

[4] = HA binder screening ELISA on non-covalently bound HA; format: binding; conditions: for specific binding to non-covalently bound HA (A450 HA wells minus blank wells): n=3, compared with RP-B
Description: FIG. 7. […] Three ELISAs were performed for each concentration (n=3). Error bars represent standard deviation.
FIG. 8. […] Specific binding was obtained by subtracting A450 of blank wells from A450 of HA loaded wells, from the readings represented in FIG. 7. Three ELISAs were performed for each concentration (n=3). […] Error bars represent standard deviation.
Wells of a clear polystyrene Amine Surface 96 well ELISA plates (Corning Life Sciences Ltd) were loaded with 100 μl of 1 mg/ml HA sodium salt (Sigma-Aldrich Ltd) in 0.1 M 2-[N-morpholino] ethane sulfonic acid (MES, pH 4.5-5, Sigma-Aldrich Ltd). The wells were incubated for three hours at room temperature on an orbital shaker. All further incubations occurred at room temperature on an orbital shaker.
Wells were then washed three times with wash buffer (0.05% Tween 20 (Sigma-Aldrich Ltd) in phosphate buffered saline (PBS), pH 7.2-7.4). PBS was prepared to the following formula: 137 mM sodium chloride, 2.7 mM potassium chloride, 8.1 mM sodium phosphate dibasic, 1.5 mM potassium phosphate monobasic, pH 7.2-7.4, 0.22 μm filtered. 300 μl of 3% BSA (Sigma-Aldrich Ltd) in PBS was used to block each well. After 90 minutes incubation the wells were washed again three times. Different concentrations of biotinylated HA binding peptides, or control peptides, were then added, dissolved in 100 μl of 3% BSA PBS, and incubated for 1 hour. Three further washes were performed. 100 μl of streptavidin-horse radish peroxidase (S-HRP) (R&D Systems Ltd) (diluted to a working concentration of 1:200 in PBS) was added to each well, to detect any bound biotinylated peptide. The wells were incubated for 20 minutes, protected from light, followed by three further washes. 100 μl of tetramethylbenzidine (TMB)/H2O2, was added to each well. The wells were incubated for 10 minutes, protected from light. The reaction was stopped with 50 μl of 1 M H2SO4. Optical density of each well was read immediately, using a Modulus Microplate Reader set to 450 nm, One-way analysis of variance (ANOVA) was used to deter line statistical significance between groups (GraphPad Prism 5, GraphPad software Ltd).

[5] = format: binding, rabbit
Description: The affinity of the peptide may be defined in terms of its binding affinity to hyaluronic acid and/or collagen, and assessed by way of its diffusion from one chamber of a micro-equilibrium dialyser containing vitreous matter (e.g. hyaluronic acid) to another chamber containing vitreous matter in the absence of such a binding peptide. Thus, the concentration of peptide remaining in the initial chamber over time provides a quantitative parameter for assessing the amount of peptide remaining in the vitreous, this parameter being innately governed by peptide binding properties to hyaluronic acid. A comparison with the binding properties of the peptide of SEQ ID No. 1 allows the relative affinity to the determined (for example, see FIG. 3).
as §1, with “The side in which the peptide is placed is termed the donating chamber. The other side, towards which the peptide diffuses, is termed the receiving chamber.” left out
In order to study the diffusion properties of HABP35-F in vitreous, Fast Micro-Equilibrium Dialyzers (250 μl chamber volume) were purchased from Harvard Apparatus Ltd (UK). […] The rate at which HABP35-F and RP2-F diffused from one side of the dialyzer to the other was assessed over time. […]

Compound: GAHWQFNALTVR-GGGS-K(Biotin)-amide [Pep1-B, reference compound]
- specific binding to non-covalently bound HA (A450 HA wells minus blank wells) [4]: significantly greater specific binding at all concentrations tested

Compound: LKQKIKHVVKLKVVVKLRSQLVKRKQN-GGGS-K(Biotin)-amide [HABP35-B]
- degradation in rabbit vitreous (mass spectrum) ([1]; incubation in rabbit vitreous, 12 hours vs 0 hours): a new ion also appeared, containing a comparable loss in MW to that seen with HABP35-F
- non-specific binding (blocked wells without HA) [4]: high non-specific binding
- specific binding to non-covalently bound HA (A450 HA wells minus blank wells) [4]: specific signal deteriorated at higher concentrations
- concentrations showing specific binding relative to HABP42-B or Pep1-B ([4]; non-covalently bound HA): ten-fold less

Compound: SATPASAPYPLAGGGSSATPASAPYPLAGGGS-K(FITC)-amide [RP2-F, reference compound]
- peptide concentration in / retention in the donating chamber ([5]; rabbit vitreous, 20 nmole/ml peptide in donating chamber, 100 kDa MWCO membrane, 2, 4, 6 and 8 hours, fluorescence): almost reaching equilibrium
- concentration gradient (concentration in donating chamber - concentration in receiving chamber) ([5]; rabbit vitreous, 2, 4, 6 and 8 hours): almost reached zero

The next lines start with results.

- amount of HABP35-F detectable by UPLC-MS ([1]; HABP35-F 10 nmole/ml, 6 hours incubation in rabbit vitreous, bestatin 250 μM): significantly increased
Compound: CC(C)C[C@H](NC(=O)[C@@H](O)[C@H](N)Cc1ccccc1)C(=O)O [Bestatin, reference compound]

- fluorescence of peptide in the vitreous (epifluorescent microscopy) [2]: increased retention
Compound: CC[C@H](C)[C@H](NC(=O)[C@H](CCCCN)NC(=O)[C@H](CCC(N)=O)NC(=O)[C@H](CCCCN)NC(=O)[C@@H](CC(C)C)NC(C)=O)C(=O)N[C@@H](CCCCN)C(=O)N[C@@H](Cc1c[nH]cn1)C(=O)N[C@H](C(=O)N[C@H](C(=O)N[C@@H](CCCCN)C(=O)N[C@@H](CC(C)C)C(=O)N[C@@H](CCCCN)C(=O)N[C@H](C(=O)N[C@H](C(=O)N[C@H](C(=O)N[C@@H](CCCCN)C(=O)N[C@@H](CC(C)C)C(=O)N[C@@H](CCCNC(=N)N)C(=O)N[C@@H](CO)C(=O)N[C@@H](CCC(N)=O)C(=O)N[C@@H](CC(C)C)C(=O)N[C@H](C(=O)N[C@@H](CCCCN)C(=O)N[C@@H](CCCNC(=N)N)C(=O)N[C@@H](CCCCN)C(=O)N[C@@H](CCC(N)=O)C(=O)N[C@@H](CC(N)=O)C(=O)NCC(=O)NCC(=O)NCC(=O)N[C@@H](CO)C(=O)N[C@@H](CCCCNC(=S)Nc1ccc2c(c1)C(=O)OC21c2ccc(O)cc2Oc2cc(O)ccc21)C(N)=O)C(C)C)C(C)C)C(C)C)C(C)C)C(C)C)C(C)C [HABP35-FP] (Ac-[dL]KQKIKHVVKLKVVVKLRSQLVKRKQNGGGSK(FITC)-NH2)

- fluorescence of peptide in the vitreous (epifluorescent microscopy) [2]: visibly more fluorescent peptide
- total amount of peptide in both chambers (degradation) during diffusion study [3]: minimal degradation
Compound: CC[C@H](C)[C@H](NC(=O)[C@H](CCCCN)NC(=O)[C@H](CCC(N)=O)NC(=O)[C@H](CCCCN)NC(=O)[C@@H](N)CC(C)C)C(=O)N[C@@H](CCCCN)C(=O)N[C@@H](Cc1c[nH]cn1)C(=O)N[C@H](C(=O)N[C@H](C(=O)N[C@@H](CCCCN)C(=O)N[C@@H](CC(C)C)C(=O)N[C@@H](CCCCN)C(=O)N[C@H](C(=O)N[C@H](C(=O)N[C@H](C(=O)N[C@@H](CCCCN)C(=O)N[C@@H](CC(C)C)C(=O)N[C@@H](CCCNC(=N)N)C(=O)N[C@@H](CO)C(=O)N[C@@H](CCC(N)=O)C(=O)N[C@@H](CC(C)C)C(=O)N[C@H](C(=O)N[C@@H](CCCCN)C(=O)N[C@@H](CCCNC(=N)N)C(=O)N[C@@H](CCCCN)C(=O)N[C@@H](CCC(N)=O)C(=O)N[C@@H](CC(N)=O)C(=O)NCC(=O)NCC(=O)NCC(=O)N[C@@H](CO)C(=O)N[C@@H](CCCCNC(=S)Nc1ccc2c(c1)C(=O)OC21c2ccc(O)cc2Oc2cc(O)ccc21)C(N)=O)C(C)C)C(C)C)C(C)C)C(C)C)C(C)C)C(C)C [HABP35-F] (H-LKQKIKHVVKLKVVVKLRSQLVKRKQNGGGSK(FITC)-NH2)
- degradation in rabbit vitreous (mass spectrum) [1]: this new molecule was HABP35-F minus the N-terminal leucine
